Data: patent US20230286983A1 (4E Therapeutics, Inc., priority 2020, published 2023)

Legend:
MNK1 = MNK1 (Homo sapiens, UniProt Q9BUB5); experiment: MNK1 substrate phosphorylation assay; assay type: biochemical; conditions: recombinant human kinase
MNK2 = MNK2 (Homo sapiens, UniProt Q9HBH9); experiment: MNK2 substrate phosphorylation assay; assay type: biochemical; conditions: recombinant human kinase
[1] = system: eIF4E phosphorylation at Serine 209 in the human embryonic kidney (HEK) 293 cell line; experiment: eIF4E phosphorylation in HEK 293 cells (fluorescent plate reader); assay type: cell-based; conditions: eIF4E phosphorylation at Serine 209, 2 hours exposure; for IC50: Homo sapiens
Experimental: The ability of MNK inhibitors described herein to inhibit eIF4E phosphorylation at Serine 209 in the human embryonic kidney (HEK) 293 cell line was tested by exposing the cells to compound for 2 hours and then measuring eIF4E phosphorylation with a phosphorylation-specific antibody in a fluorescent plate reader. These experiments were done with HEK-293 cells plated on 96 well plates. Following treatment, cells were fixed with ice cold methanol for 10 min and then washed in 1× phosphate buffered saline (PBS) and the permeabilized with 0.02% Triton X-100 in 10% normal goat serum made up in PBS. Primary antibody was applied overnight at a concentration dilution of 1:2000 (p-eIF4E antibody from Cell Signaling ab76256). Following washing, cells were then exposed to secondary antibody conjugated to alexa-fluor 488 and then visualized on a Syngergy HTX plate reader. Fluorescence for p-eIF4E was measured and normalized to total DAPI fluorescence to determine the percentage of eIF4E phosphorylation in each well. Data were plotted in Graphpad Prism V8 to determine concentration-response effects and calculate IC50 values.

[2] = system: eIF4E phosphorylation at Serine 209 in the human osteosarcoma (U2OS) cell line; experiment: eIF4E phosphorylation in U2OS cells (fluorescent plate reader); assay type: cell-based; conditions: eIF4E phosphorylation at Serine 209, 2 hours exposure; for IC50: Homo sapiens, U2OS
Experimental: The ability of MNK inhibitors described herein to inhibit eIF4E phosphorylation at Serine 209 in the human osteosarcoma (U2OS) cell line was tested by exposing the cells to compound for 2 hours and then measuring eIF4E phosphorylation with a phosphorylation-specific antibody in a fluorescent plate reader.

P-gp (human MDR1, ABCB1) = experiment: MDCK-MDR1 permeability (blood brain barrier permeability); assay type: in vitro ADME, Canine; conditions: dog; for efflux ratio at 5 μM: MDCK-MDR1, 5 μM, read-out: Efflux ratio (ratio B-A/A-B); for Papp A→B at 5 μM: MDCK-MDR1, Apical to basolateral transport; for Papp A→B at 5 μM / Papp B→A at 5 μM: average of two experiments; for Papp B→A at 5 μM: MDCK-MDR1, Basolateral to apical transport
[3] = system: eIF4E phosphorylation at Serine 209 in Karpas 299; experiment: eIF4E phosphorylation in Karpas 299 cells (sandwich ELISA); assay type: cell-based; conditions: Homo sapiens, read-out: Karpas 299 cell IC50
Experimental: The ability of MNK inhibitors described herein to inhibit eIF4E phosphorylation at Serine 209 in Karpas 299, Human Non-Hodgkin's Ki-positive Large Cell Lymphoma cell line was tested by sandwich enzyme linked immune-absorbance assay.

[4] = Liver microsome stability, rat; assay type: in vitro ADME; conditions: Rat liver microsomes (#); for microsomal CLint: read-out: CLint rodent; for half-life: read-out: Rodent liver microsomes t1/2
[5] = Liver microsome stability, human; assay type: in vitro ADME; conditions: liver microsomes; for half-life: read-out: Human liver microsomes t1/2
[6] = target: Cdc2-like kinase 4 (CLK4) (Homo sapiens, UniProt Q9HAZ1); experiment: Off-target kinase screen CLK4; assay type: biochemical; conditions: 1 μM test compound
Text: (§1) These kinases were chosen because they are the only known off-target hit kinases for eFT508. These assays were done using recombinant human kinases (CLK4, DRAK1 and PKG2) in a substrate phosphorylation assay. % activity remaining after MNK inhibitor treatment is indicated in Table 12.

[7] = target: T1, death-associated protein kinase-related apoptosis-inducing protein kinase 1 (DRAK1) (Homo sapiens, UniProt Q9UEE5); experiment: Off-target kinase screen DRAK1; assay type: biochemical; conditions: 1 μM test compound
T1 sequence (Q9UEE5 1-414): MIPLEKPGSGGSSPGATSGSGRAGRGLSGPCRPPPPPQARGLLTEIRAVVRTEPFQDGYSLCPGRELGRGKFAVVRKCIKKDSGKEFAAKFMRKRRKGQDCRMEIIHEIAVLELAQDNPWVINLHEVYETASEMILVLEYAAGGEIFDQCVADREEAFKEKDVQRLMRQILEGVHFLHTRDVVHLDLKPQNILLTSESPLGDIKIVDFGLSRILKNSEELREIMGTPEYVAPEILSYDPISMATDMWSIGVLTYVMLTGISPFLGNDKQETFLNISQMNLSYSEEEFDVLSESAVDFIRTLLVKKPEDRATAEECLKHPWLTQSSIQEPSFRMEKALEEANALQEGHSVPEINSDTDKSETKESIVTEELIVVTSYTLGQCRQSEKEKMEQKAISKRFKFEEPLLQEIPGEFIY
Text: as §1

[8] = target: T2, protein kinase G 2 (PKG2) (Homo sapiens, UniProt Q13237); experiment: Off-target kinase screen PKG2; assay type: biochemical; conditions: 1 μM test compound
T2 sequence (Q13237 1-762): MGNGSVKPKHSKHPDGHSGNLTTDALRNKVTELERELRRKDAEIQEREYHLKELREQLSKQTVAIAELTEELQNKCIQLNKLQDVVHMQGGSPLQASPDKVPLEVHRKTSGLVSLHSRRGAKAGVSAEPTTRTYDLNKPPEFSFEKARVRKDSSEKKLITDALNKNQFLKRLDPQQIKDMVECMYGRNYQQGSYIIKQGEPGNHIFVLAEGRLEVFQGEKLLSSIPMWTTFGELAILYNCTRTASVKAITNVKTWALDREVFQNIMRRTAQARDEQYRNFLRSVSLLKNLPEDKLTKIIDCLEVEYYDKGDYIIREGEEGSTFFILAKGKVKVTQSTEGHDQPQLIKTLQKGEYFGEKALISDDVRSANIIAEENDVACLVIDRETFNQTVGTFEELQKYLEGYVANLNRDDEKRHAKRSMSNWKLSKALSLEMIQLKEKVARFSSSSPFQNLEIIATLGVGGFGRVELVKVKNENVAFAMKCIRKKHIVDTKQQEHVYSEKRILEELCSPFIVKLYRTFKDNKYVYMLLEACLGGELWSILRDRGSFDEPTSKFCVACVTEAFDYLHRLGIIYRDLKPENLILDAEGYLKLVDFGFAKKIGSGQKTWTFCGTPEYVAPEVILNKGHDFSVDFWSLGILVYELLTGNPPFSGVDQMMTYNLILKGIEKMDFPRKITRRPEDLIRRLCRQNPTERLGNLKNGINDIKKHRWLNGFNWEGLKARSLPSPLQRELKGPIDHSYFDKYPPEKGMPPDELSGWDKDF
Text: as §1

[9] = Liver microsome stability, mouse; assay type: in vitro ADME; conditions: Mouse liver microsomes (*)

Sequence of Cdc2-like kinase 4 (CLK4) (Q9HAZ1 whole entry): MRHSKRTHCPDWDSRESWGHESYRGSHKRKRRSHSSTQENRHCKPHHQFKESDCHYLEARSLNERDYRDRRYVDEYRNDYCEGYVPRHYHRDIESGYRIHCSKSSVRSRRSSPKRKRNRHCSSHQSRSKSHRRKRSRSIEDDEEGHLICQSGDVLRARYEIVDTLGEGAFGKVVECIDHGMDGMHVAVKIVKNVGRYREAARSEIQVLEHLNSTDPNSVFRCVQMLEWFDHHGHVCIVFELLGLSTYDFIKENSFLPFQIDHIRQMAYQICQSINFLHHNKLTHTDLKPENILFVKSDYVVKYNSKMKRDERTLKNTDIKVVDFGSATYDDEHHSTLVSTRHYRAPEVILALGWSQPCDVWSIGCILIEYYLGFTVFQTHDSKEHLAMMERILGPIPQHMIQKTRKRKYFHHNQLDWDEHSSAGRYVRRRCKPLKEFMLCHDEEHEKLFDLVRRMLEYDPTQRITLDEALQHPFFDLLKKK
Sequence of MNK2 (Q9HBH9 whole entry): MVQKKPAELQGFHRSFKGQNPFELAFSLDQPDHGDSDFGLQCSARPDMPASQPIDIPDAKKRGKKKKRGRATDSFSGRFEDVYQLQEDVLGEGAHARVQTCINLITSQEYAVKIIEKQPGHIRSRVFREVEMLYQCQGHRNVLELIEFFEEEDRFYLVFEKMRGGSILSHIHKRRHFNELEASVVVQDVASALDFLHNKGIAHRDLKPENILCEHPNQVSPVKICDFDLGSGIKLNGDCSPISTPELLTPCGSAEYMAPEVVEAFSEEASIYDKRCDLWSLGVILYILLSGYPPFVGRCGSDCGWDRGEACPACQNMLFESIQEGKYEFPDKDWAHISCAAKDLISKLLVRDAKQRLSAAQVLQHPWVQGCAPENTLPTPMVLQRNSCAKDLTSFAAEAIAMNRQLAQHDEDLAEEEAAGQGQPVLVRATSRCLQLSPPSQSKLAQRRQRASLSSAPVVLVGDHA
Sequence of MNK1 (Q9BUB5 whole entry): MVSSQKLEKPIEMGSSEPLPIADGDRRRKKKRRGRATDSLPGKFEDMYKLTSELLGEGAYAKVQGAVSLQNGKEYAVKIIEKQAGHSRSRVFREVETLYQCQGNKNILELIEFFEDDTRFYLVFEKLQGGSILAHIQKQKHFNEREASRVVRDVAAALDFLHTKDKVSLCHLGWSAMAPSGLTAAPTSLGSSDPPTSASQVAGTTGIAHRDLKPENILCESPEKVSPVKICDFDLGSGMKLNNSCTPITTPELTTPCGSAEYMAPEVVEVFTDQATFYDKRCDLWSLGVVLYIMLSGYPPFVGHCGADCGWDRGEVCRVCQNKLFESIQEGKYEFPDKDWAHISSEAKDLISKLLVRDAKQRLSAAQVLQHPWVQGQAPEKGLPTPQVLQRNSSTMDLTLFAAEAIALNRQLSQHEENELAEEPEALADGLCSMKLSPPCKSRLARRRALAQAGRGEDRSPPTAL

Compound | IC50 (MNK1) [nM] | IC50 (MNK2) [nM] | HEK 293 cell IC50 [1] | U2OS cell IC50 [2] | efflux ratio at 5 μM (P-gp (human MDR1, ABCB1)) | Papp A→B at 5 μM (P-gp (human MDR1, ABCB1)) [nm/s] | Papp B→A at 5 μM (P-gp (human MDR1, ABCB1)) [nm/s] | IC50 ([1]; HEK293) [nM] | IC50 [3] [nM] | microsomal CLint [4] [µL/min/mg] | half-life [4] [h] | microsomal CLint [5] [µL/min/mg] | half-life [5] [h] | remaining activity at 1 µM [6] [%] | remaining activity at 1 µM [7] [%] | remaining activity at 1 µM [8] [%] | IC50 ([1]; HEK293, 2 h) [nM] | IC50 [2] [nM] | microsomal CLint ([9]; read-out: CLint rodent) [µL/min/mg] | half-life ([9]; mouse, liver microsomes, Table 11a, read-out: Rodent liver microsomes t1/2) [h]
Cc1cc(Nc2cc(NCCNS(C)(=O)=O)ncn2)c(=O)n2c1C(=O)NC21CCCC1 [Compound 4ET-03-013, N-(2-((6-((8′-methyl-1′,5′-dioxo-1′,5′-dihydro-2′H-spiro[cyclopentane-1,3′-imidazo[1,5-a]pyridin]-6′-yl)amino)pyrimidin-4-yl)amino)ethyl)methanesulfonamide] | 205 | 8 | inactive | inactive | 18.1 | 2 | 39 |  |  |  |  |  |  |  |  |  |  |  |  | 
Cc1cc(Nc2cc(N)ncn2)c(=O)n2c1C(=O)NC2(C)C [Compound 4ET-01-003, 6-((6-Aminopyrimidin-4-yl)amino)-3,3,8-trimethyl-2,3-dihydroimidazo[1,5-a]pyridine-1,5-dione] |  | 2 |  |  |  | 91 | 133 | 10.5 | 35 | 2.33 | 9.93 | 1.93 | 12 | 91 | 65 | 88 |  |  |  | 
Cc1cc(Nc2cc(N)ncn2)c(=O)n2c1C(=O)NC21CCC(NS(C)(=O)=O)CC1 (centres unmarked) [Compound 4ET-01-004, N-(6′-((6-Aminopyrimidin-4-yl)amino)-8′-methyl-1′,5′-dioxo-1′,5′-dihydro-2′H-spiro[cyclohexane-1,3′-imidazo[1,5-a]pyridin]-4-yl)methanesulfonamide] | 104 | 8.2 |  |  | 4.4 | 1 | 3 |  |  | 9.57 | 2.42 | 2.56 | 9.02 | 93 | 76 | 100 | 33.6 |  |  | 
Cc1cc(Nc2cc(N)ncn2)c(=O)n2c1C(=O)NC21CCOCC1 [Compound 4ET-01-002, 6-((6-Aminopyrimidin-4-yl)amino)-8-methyl-2′,3′,5′,6′-tetrahydro-2H-spiro[imidazo[1,5-a]pyridine-3,4′-pyran]-1,5-dione] | 27.9 | 2.6 |  |  | 2.2 | 26 | 56 |  | 33 | 2.7 | 8.57 | 2.17 | 10.7 | 100 | 72 | 97 | 18.5 | 6.9 |  | 
Cc1cc(Nc2cc(NCCO)ncn2)c(=O)n2c1C(=O)NC21CCCCC1 [Compound 4ET-02-001, 6′-((6-((2-Hydroxyethyl)amino)pyrimidin-4-yl)amino)-8′-methyl-2′H-spiro[cyclohexane-1,3′-imidazo[1,5-a]pyridine]-1′,5′-dione] | 39.6 | 1.6 |  |  |  |  |  |  | 17 | 2.54 | 9.1 | 2.51 | 9.2 | 92 | 81 | 99 | 7.1 |  |  | 
Cc1cc(Nc2cc(NC(=O)C3CC3)ncn2)c(=O)n2c1C(=O)NC21CCCC1 [Compound 4ET-03-017, N-(6-((8′-Methyl-1′,5′-dioxo-1′,5′-dihydro-2′H-spiro[cyclopentane-1,3′-imidazo[1,5-a]pyridin]-6′-yl)amino)pyrimidin-4-yl)cyclopropanecarboxamide] |  |  |  |  |  | 163 | 589 | 0.9 | 1 |  |  |  |  | 17 | 9 | 100 |  | 0.4 |  | 
Cc1cc(Nc2cc(NC(=O)C(C)C)ncn2)c(=O)n2c1C(=O)NC21CCCC1 [Compound 4ET-03-005, N-(6-((8′-Methyl-1′,5′-dioxo-1′,5′-dihydro-2′H-spiro[cyclopentane-1,3′-imidazo[1,5-a]pyridin]-6′-yl)amino)pyrimidin-4-yl)isobutyramide] | 20.5 | 1.8 |  |  | 3.8 | 155 | 586 |  | 6.4 | 4.84 | 4.78 | 0.77 | 29.9 |  |  |  | 2.6 | 5.1 |  | 
Cc1cc(Nc2cc(NCCNS(C)(=O)=O)ncn2)c(=O)n2c1C(=O)NC21CCCCC1 [Compound 4ET-02-004, N-(2-((6-((8′-methyl-1′,5′-dioxo-1′,5′-dihydro-2′H-spiro[cyclohexane-1,3′-imidazo[1,5-a]pyridin]-6′-yl)amino)pyrimidin-4-yl)amino)ethyl)methanesulfonamide] | 61.7 | 2.1 |  |  | 30.2 | 3 | 76 |  |  |  |  | 1.25 | 18.5 | 81 | 86 | 100 | 30.7 | 30 | 2.5 | 9.25
